In US20230312550A1, “N-(2-(4-CYANOTHIAZOLIDIN-3-YL)-2-OXOETHYL)-QUINOLINE-4-CARBOXAMIDES” (AstraZeneca AB, priority 2020, published 2023):
≈ marks a conversion by molar mass, not a printed value.

How the values were obtained:
[1] = Metabolic stability in rat hepatocytes (rHep); settings: n = 1 or geometric mean of n = 2-3
[2] = Metabolic stability in human liver microsomes (HLM); settings: human
Procedure: Metabolic stability in HLM was measured as described in J Comput Aided Mol Des 2015, 29, 795.

hFAP (M39-A757) = hFAP (M39-A757) (Homo sapiens (Human), UniProt Q12884); experiment: hFAP binding assay (surface plasmon resonance); settings: SPR, 20° C.; for Kd: n = 1 or geometric mean n = 2-4; for hFAP Binding assay k(off) / hFAP Binding assay k(on): single cycle kinetics
[3] = molecular target: human Fibroblast activation protein alpha (hFAP) (Homo sapiens (Human), UniProt Q12884); experiment: hFAP inhibition assay (tight binders); assay type: biochemical; settings: Ala-Pro-AMC 20 μM, n = 1 or geometric mean n = 2-6; note: hFAP 2.4 pM
Procedure: The plates were read on a PHERAstar® reader with excitation 340 nm and emission 460 nm. Data were analyzed in Genedata Screener®. IC50 values were determined by plotting % inhibition versus log compound concentration and using a one site dose response model.

Kinetic solubility = settings: kinetic from dmso stock
Procedure: Kinetic solubility was measured as described in Comput Aided Mol Des 2015, 29, 795.

[4] = molecular target: Prolyl endopeptidase, Prolyl Oligopeptidase (hPREP) (Homo sapiens (Human), UniProt P48147); experiment: hPrep inhibition assay; assay type: biochemical; settings: hPREP 0.6 nM, Z-Gly-Pro-amino-methylcoumarin 50 μM; read-out: PREP IC50
Procedure: Compounds were tested in a biochemical inhibition assay using Prolyl endopeptidase, Prolyl Oligopeptidase (hPREP) enzyme at 0.6 nM FAC (R&D Systems, 4308-SE) and the substrate Z-Gly-Pro-amino-methylcoumarin (Bachem, I-1145) at 50 μM FAC. 384 Low volume black plates (Greiner #784076) were used. […] Plates were incubated for 15 min at rt in dark. 4 μL, 100 μM substrate solution (25 mM Tris HCl, 250 mM NaCl, 0.01% Triton X-100, 5 mM Glutathione, pH 7.5) was added to each well. Plates were centrifuged at 1000 rpm and incubated for 20 min at rt in dark. The plates were read on a PHERAstar® reader with excitation 340 nm and emission 460 nm. Data were analyzed in Genedata Screener®. IC50 values were determined by plotting % inhibition versus log compound concentration and using a one site dose response model.

[5] = Solubility, kinetic solubility, n = 1 or average of n = 2-3
[6] = HLM CLint, n = 1 or average of n = 2-3

Sequence of human Fibroblast activation protein alpha (hFAP) (Q12884 38-760): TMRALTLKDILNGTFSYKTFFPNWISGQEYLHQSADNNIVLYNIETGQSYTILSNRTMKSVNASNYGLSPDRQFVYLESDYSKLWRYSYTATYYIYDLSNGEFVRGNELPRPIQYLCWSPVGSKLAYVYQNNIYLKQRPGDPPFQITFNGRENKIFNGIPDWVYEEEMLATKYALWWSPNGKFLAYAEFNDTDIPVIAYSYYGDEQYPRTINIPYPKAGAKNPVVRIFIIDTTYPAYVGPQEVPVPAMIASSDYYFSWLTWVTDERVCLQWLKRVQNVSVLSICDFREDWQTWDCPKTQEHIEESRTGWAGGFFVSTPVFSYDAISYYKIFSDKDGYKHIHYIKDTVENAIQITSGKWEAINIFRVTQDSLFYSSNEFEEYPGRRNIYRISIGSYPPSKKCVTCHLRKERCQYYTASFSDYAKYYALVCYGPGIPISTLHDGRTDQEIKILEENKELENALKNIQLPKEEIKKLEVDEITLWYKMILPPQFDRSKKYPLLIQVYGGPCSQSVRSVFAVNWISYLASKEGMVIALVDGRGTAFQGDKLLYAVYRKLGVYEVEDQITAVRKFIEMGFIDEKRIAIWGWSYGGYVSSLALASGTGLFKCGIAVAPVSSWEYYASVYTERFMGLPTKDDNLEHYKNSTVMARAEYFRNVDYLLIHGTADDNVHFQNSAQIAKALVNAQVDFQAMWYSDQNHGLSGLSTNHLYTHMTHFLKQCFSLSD
Sequence of hFAP (M39-A757) (Q12884 39-757): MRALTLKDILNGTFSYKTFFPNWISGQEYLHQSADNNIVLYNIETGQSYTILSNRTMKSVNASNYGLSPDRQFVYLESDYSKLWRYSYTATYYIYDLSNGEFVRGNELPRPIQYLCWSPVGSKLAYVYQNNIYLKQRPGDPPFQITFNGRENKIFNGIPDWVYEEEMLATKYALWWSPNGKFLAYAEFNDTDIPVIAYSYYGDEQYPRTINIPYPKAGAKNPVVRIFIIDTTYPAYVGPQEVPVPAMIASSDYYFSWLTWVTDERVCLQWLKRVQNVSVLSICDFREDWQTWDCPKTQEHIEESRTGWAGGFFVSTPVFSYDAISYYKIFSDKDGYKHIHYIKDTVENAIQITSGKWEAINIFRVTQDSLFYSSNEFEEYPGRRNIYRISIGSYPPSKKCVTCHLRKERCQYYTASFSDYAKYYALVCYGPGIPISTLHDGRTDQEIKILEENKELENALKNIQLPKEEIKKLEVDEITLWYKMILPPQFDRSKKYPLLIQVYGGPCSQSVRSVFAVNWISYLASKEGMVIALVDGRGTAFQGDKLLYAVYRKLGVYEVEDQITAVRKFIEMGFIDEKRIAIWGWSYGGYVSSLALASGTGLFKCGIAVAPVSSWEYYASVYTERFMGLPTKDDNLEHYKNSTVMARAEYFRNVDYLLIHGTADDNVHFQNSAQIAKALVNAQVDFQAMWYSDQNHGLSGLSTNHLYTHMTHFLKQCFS
Sequence of Prolyl endopeptidase, Prolyl Oligopeptidase (hPREP) (P48147 whole entry): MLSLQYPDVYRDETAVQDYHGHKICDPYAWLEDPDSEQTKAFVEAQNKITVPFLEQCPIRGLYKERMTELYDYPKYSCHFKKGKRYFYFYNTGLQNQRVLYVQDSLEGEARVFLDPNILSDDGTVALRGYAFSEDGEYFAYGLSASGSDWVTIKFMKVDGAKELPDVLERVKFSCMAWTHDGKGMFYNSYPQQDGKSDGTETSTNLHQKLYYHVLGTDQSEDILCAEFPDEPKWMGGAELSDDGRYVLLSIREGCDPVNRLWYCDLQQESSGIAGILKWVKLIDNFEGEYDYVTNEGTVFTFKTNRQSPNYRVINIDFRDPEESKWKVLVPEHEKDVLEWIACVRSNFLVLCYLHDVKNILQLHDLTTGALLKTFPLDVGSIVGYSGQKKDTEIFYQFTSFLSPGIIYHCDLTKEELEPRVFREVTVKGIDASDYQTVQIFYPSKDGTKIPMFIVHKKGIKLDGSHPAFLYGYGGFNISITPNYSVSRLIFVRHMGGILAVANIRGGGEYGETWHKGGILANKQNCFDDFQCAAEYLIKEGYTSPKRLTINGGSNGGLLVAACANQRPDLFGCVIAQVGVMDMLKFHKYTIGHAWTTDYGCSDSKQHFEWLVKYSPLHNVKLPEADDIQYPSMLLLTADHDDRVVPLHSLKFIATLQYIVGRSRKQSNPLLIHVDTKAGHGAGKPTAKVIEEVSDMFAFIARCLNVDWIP

Row | Compound | rHep CLint [1] [μL/min/1E6] | microsomal CLint ([2]; liver microsomes, HLM CLint, n = 1 or average of n = 2-3) [µL/min/mg] | Kd (hFAP (M39-A757)) [nM] | IC50 [3] [nM] | solubility (Kinetic solubility; [5]) [µM] | IC50 [4] [nM] | microsomal CLint [2, 6] [µL/min/mg] | hFAP Binding assay k(off) (hFAP (M39-A757)) [s⁻¹] | hFAP Binding assay k(on) (hFAP (M39-A757)) [M⁻¹ s⁻¹] | microsomal CLint [2] [µL/min/mg] | solubility (Kinetic solubility) [µM]
1 | N#C[C@@H]1CSCN1C(=O)CNC(=O)c1ccnc2ccc(N3CCC[C@@H]3C3CC3)cc12 (single isomer, unassigned) [Example 199, N-(2-((R)-4-Cyanothiazolidin-3-yl)-2-oxoethyl)-6-((R*)-2-cyclopropyl-pyrrolidin-1-yl)quinoline-4-carboxamide] | 250 | – | 0.1 | 0.3 | 85 (≈ 37 µg/mL) | 170 | > 300 | 0.00026 | 2300000 | – | –
2 | CC1(C)CCc2cn(-c3ccc4nccc(C(=O)NCC(=O)N5CSC[C@H]5C#N)c4c3)nc21 [Example 117, (R)—N-(2-(4-Cyanothiazolidin-3-yl)-2-oxoethyl)-6-(6,6-dimethyl-5,6-dihydrocyclopenta[c]pyrazol-2(4H)-yl)quinoline-4-carboxamide] | 29 | – | 0.06 | 0.061 | 25 (≈ 11.5 µg/mL) | 170 | 170 | – | – | – | –
3 | C[C@@H]1CN(c2ccc3nccc(C(=O)NCC(=O)N4CSC[C@H]4C#N)c3c2)C[C@H](C)[C@]1(C)O [Example 193, N-(2-((R)-4-Cyanothiazolidin-3-yl)-2-oxoethyl)-6-((3R,4S,5S)-4-hydroxy-3,4,5-trimethylpiperidin-1-yl)quinoline-4-carboxamide] | 11 | – | 0.16 | 0.24 | 940 (≈ 440 µg/mL) | 360 | 53 | 0.00012 | 740000 | – | –
4 | N#C[C@@H]1CSCN1C(=O)CNC(=O)c1ccnc2ccc(N3CC4(CC4)C3)cc12 [Example 164, (R)—N-(2-(4-Cyanothiazolidin-3-yl)-2-oxoethyl)-6-(5-azaspiro[2.3]hexan-5-yl)quinoline-4-carboxamide] | 8.1 | – | 0.027 | 0.081 | – | 240 | – | 0.000036 | 1400000 | 22 | 64 (≈ 26.1 µg/mL)
5 | N#C[C@@H]1CSCN1C(=O)CNC(=O)c1ccnc2ccc(N3CC4(CCCC4(F)F)C3)cc12 [Example 141, (R)—N-(2-(4-Cyanothiazolidin-3-yl)-2-oxoethyl)-6-(5,5-difluoro-2-azaspiro[3.4]octan-2-yl)quinoline-4-carboxamide] | 11 | – | 0.062 | 0.059 | – | 460 | – | 0.000078 | 1400000 | 54 | 140 (≈ 66 µg/mL)
6 | CO[C@@H]1CCN(c2ccc3nccc(C(=O)NCC(=O)N4CSC[C@H]4C#N)c3c2)C1 [Example 161, N-(2-((R)-4-Cyanothiazolidin-3-yl)-2-oxoethyl)-6-((R)-3-methoxy-pyrrolidin-1-yl)quinoline-4-carboxamide] | 8.5 | – | 0.022 | 0.052 | 84 (≈ 35.7 µg/mL) | 470 | 6.7 | 0.00028 | 14000000 | – | –
7 | N#C[C@@H]1CSCN1C(=O)CNC(=O)c1ccnc2ccc(N3CC(CC(F)F)C3)cc12 [Example 144, (R)—N-(2-(4-Cyanothiazolidin-3-yl)-2-oxoethyl)-6-(3-(2,2-difluoroethyl)-azetidin-1-yl)quinoline-4-carboxamide] | 7 | – | 0.049 | 0.081 | 18 (≈ 8.02 µg/mL) | 460 | 14 | 0.00051 | 9100000 | – | –
8 | COC1CN(c2ccc3nccc(C(=O)NCC(=O)N4CSC[C@H]4C#N)c3c2)C1 [Example 66, (R)—N-(2-(4-Cyanothiazolidin-3-yl)-2-oxoethyl)-6-(3-methoxyazetidin-1-yl)quinoline-4-carboxamide] | <1 | – | 0.035 | 0.077 | 210 (≈ 86.4 µg/mL) | 490 | < 3 | 0.00022 | 26000000 | – | –
9 | N#C[C@@H]1CSCN1C(=O)CNC(=O)c1ccnc2ccc(N3CCC4(CC3)OCCCO4)cc12 [Example 227, (R)—N-(2-(4-cyanothiazolidin-3-yl)-2-oxoethyl)-6-(1,5-dioxa-9-azaspiro[5.5]undecan-9-yl)quinoline-4-carboxamide] | 2.8 | – | – | – | – | 600 | – | – | – | 17 | 852 (≈ 410 µg/mL)

Continued by falling IC50 [4], values first:

Row | rHep CLint [1] [μL/min/1E6] | microsomal CLint ([2]; liver microsomes, HLM CLint, n = 1 or average of n = 2-3) [µL/min/mg] | Kd (hFAP (M39-A757)) [nM] | IC50 [3] [nM] | solubility (Kinetic solubility; [5]) [µM] | IC50 [4] [nM] | microsomal CLint [2, 6] [µL/min/mg] | hFAP Binding assay k(off) (hFAP (M39-A757)) [s⁻¹] | hFAP Binding assay k(on) (hFAP (M39-A757)) [M⁻¹ s⁻¹] | Compound | microsomal CLint [2] [µL/min/mg] | solubility (Kinetic solubility) [µM]
10 | – | – | – | – | – | 680 | – | 0.000080 | 2000000 | C[C@H]1COCCN1c1ccc2nccc(C(=O)NCC(=O)N3CSC[C@H]3C#N)c2c1 [Example 102, N-(2-((R)-4-Cyanothiazolidin-3-yl)-2-oxoethyl)-6-((S)-3-methyl-morpholino)quinoline-4-carboxamide] | – | –
11 | – | – | 0.032 | 0.16 | – | 630 | – | 0.000048 | 1600000 | C[C@]1(O)CCN(c2ccc3nccc(C(=O)NCC(=O)N4CSC[C@H]4C#N)c3c2)C1 [Example 168, N-(2-((R)-4-Cyanothiazolidin-3-yl)-2-oxoethyl)-6-((S)-3-hydroxy-3-methylpyrrolidin-1-yl)quinoline-4-carboxamide] | – | –
12 | 11 | 54 | 0.18 | 0.19 | 16 (≈ 7.67 µg/mL) | 540 | – | – | – | N#C[C@@H]1CSCN1C(=O)CNC(=O)c1ccnc2ccc(N3CC(COC(F)(F)F)C3)cc12 [Example 130, (R)—N-(2-(4-Cyanothiazolidin-3-yl)-2-oxoethyl)-6-(3-((trifluoromethoxy)-methyl)azetidin-1-yl)quinoline-4-carboxamide] | – | –
13 | 10 | – | 0.029 | 0.07 | 5.3 (≈ 2.23 µg/mL) | 250 | 40 | 0.00013 | 4500000 | N#C[C@@H]1CSCN1C(=O)CNC(=O)c1ccnc2ccc(N3CC(C4CC4)C3)cc12 [Example 145, (R)—N-(2-(4-Cyanothiazolidin-3-yl)-2-oxoethyl)-6-(3-cyclopropylazetidin-1-yl)quinoline-4-carboxamide] | – | –
14 | 100 | – | 0.38 | 0.51 | 120 (≈ 55.1 µg/mL) | 200 | – | 18 | 40000000000 | N#C[C@@H]1CSCN1C(=O)CNC(=O)c1ccnc2ccc(N3CCOc4ccccc43)cc12 [Example 6, (R)—N-(2-(4-Cyanothiazolidin-3-yl)-2-oxoethyl)-6-(2,3-dihydro-4H-benzo[b][1,4]oxazin-4-yl)quinoline-4-carboxamide] | – | –
